Experimental data taken from patent US10858367B2, “Compounds” (GLAXOSMITHKLINE INTELLECTUAL PROPERTY DEVELOPMENT LIMITED, priority 2017, dated 2020).
Structures can show the parent of a compound that is named as a salt.

Molecular target: T1, full length G2019 human LRRK2 (Homo sapiens, UniProt Q5S007, R50H)
T1 construct: made in house; host or cells: HEK293 6E cells transduced with BacMam virus (virus generated in Sf9 cells)
Assay: Full length G2019 human LRRK2 Inhibition Mass Spectrometry assay
Format: biochemical
Details: 25 nM LRRK2 enzyme, 25 uM LRRKtide, 2 mM ATP; RapidFire mass spectrometry; read-out: pIC50 in the full length G2019 human LRRK2 Inhibition Mass Spectrometry assay (converted)
Source text: a. Full Length G2019 Human LRRK2 Inhibition Mass Spectrometry Assay
This assay for Leucine Rich Repeat Kinase 2 (LRRK2) inhibition is based on the direct measurement of the peptide ‘LRRKtide’ (LRRKtide: RLGRDKYKT*LRQIRQ and “*” refers to the site of phosphorylation.) and phosphorylated ‘LRRKtide’ using a high throughput RapidFire mass spectrometry assay. Inhibitors are compounds that reduce the conversion of LRRKtide to phospho-LRRKtide.
Human G2019 LRRK2 Plasmid Preparation
Primers used for PCR cloning: • pHTBV-F:SEQ ID No: 1 • LRRK2 wt-F1:SEQ ID No: 2 • LRRK2 wt-R1: SEQ ID No: 3 • LRRK2 wt-F2: SEQ ID No: 4 • LRRK2 wt-R2: SEQ ID No: 5 • LRRK2 wt-F3:SEQ ID No: 6 • pHTBV-R: SEQ ID No: 7 pHTBV1-N-Flag-hu LRRK2 was generated by PCR amplifying the full length LRRK2 sequence with N terminal Flag tag from pcDNA3.1(+)_Human_LRRK2 (NCBI Reference Sequence: NP_940980.3) with the primers described above, and cloned into pHTBV1mcs3 vector between BamHI and KpnI sites.
The G2019 full length Flag-LRRK2 coding sequence is SEQ ID No: 8.
The translated amino acid sequence for human G2019 full length N terminal flag tagged LRRK2 protein is SEQ ID No: 9.
Protein Expression & Purification a) Expression of Flag Tagged Full Length G2019 Human LRRK2
HEK293 6E cells were incubated in a 37° C. incubator with a humidified atmosphere of 5% CO2 on an orbital shaker rotating at 110 rpm. On the day of transduction, the cell viability was higher than 98% and the cell density was in the range of 1×10^6˜1.5×10^6 cells/ml. HEK293 6E cells were centrifuged at 1,000 rpm for 10 min, and then the cells were resuspended in fresh Freestyle 293 expression medium (Invitrogen: 12338) with 0.1% F-68(Invitrogen: 24040-032) but without antibiotics (G418) at density of 1×10^6 cells/ml. BacMam virus with Flag-hu LRRK2 (genotypically normal) gene was centrifuged at 40,000 g for 2 hours, then resuspended in fresh Freestyle 293 expression medium. The resuspended virus was added into the cells in at MOI of 10. The cells were incubated in a 37° C. incubator with a humidified atmosphere of 5% CO2 in air on an orbital shaker rotating at 110 rpm. Cultures were harvested at approximately 48 hours post-transduction by centrifugation at 4,000 rpm for 20 min and pellets were frozen for purification. […]
b) Purification of Flag Tagged Full Length G2019 Human LRRK2
The suspended cells were lysed by sonication on ice for 30 min (2 secs on/4 sec off, 20% amplitude), and centrifuged at 10,000 rpm for 30 minutes at 4° C. The supernatant was incubated with 1 mL per litre of cell culture of anti-Flag magnetic beads (Sigma-Aldrich: M8823) at 4° C. for 3 hours, then the beads were washed by 5 mL (5 column volume) binding buffer (50 mM Tris pH7.5@ 4 C, 500 mM NaCl, 0.5 mM EDTA, 0.1% TritonX-100, 10% glycerol, freshly add 2 mM DTT) for three times. The Flag tagged LRRK2 proteins were eluted by Elution buffer (50 mM Tris pH7.5@ 4 C, 500 mM NaCl, 0.5 mM EDTA, 0.1% TritonX-100, 10% glycerol, freshly add 2 mM DTT, 250 ug/ml Flag peptide (Sigma-Aldrich:F3290)) at 4° C. for 2 hours. Flag peptide was removed by Zeba Spin Desalting Columns, 7K MWCO (Thermo-Fisher: 89893) and the buffer of eluted LRRK2 proteins was exchanged into Storage Buffer (50 mM Tris pH7.5@4 C, 150 mM NaCl, 0.5 mM EDTA, 0.02% Triton X-100, 2 mM DTT and 50% Glycerol) using Amicon Ultra Centrifugal Filter Units (100 kD) (Merck: UFC910096). Fractions containing LRRK2 proteins were pooled, aliquoted and stored at −80° C. Protein concentration was determined by Bradford protein assay, and protein purity was analyzed by NuPAG Novex 4-12% Bis-Tris Protein Gels (Invitrogen: NP0322BOX).
Assay Protocol • 1) A 10 mM test compound was dissolved in 100% DMSO and serially diluted 1 in 4. 100 nL of this dilution series was then added to a 384 well, v bottom polypropylene plate, excluding columns 6 and 18. 100 nL of DMSO was added to columns 6 and 18 as controls wells. […]

T1 sequence (Q5S007 with tags, fused parts or gaps R50H): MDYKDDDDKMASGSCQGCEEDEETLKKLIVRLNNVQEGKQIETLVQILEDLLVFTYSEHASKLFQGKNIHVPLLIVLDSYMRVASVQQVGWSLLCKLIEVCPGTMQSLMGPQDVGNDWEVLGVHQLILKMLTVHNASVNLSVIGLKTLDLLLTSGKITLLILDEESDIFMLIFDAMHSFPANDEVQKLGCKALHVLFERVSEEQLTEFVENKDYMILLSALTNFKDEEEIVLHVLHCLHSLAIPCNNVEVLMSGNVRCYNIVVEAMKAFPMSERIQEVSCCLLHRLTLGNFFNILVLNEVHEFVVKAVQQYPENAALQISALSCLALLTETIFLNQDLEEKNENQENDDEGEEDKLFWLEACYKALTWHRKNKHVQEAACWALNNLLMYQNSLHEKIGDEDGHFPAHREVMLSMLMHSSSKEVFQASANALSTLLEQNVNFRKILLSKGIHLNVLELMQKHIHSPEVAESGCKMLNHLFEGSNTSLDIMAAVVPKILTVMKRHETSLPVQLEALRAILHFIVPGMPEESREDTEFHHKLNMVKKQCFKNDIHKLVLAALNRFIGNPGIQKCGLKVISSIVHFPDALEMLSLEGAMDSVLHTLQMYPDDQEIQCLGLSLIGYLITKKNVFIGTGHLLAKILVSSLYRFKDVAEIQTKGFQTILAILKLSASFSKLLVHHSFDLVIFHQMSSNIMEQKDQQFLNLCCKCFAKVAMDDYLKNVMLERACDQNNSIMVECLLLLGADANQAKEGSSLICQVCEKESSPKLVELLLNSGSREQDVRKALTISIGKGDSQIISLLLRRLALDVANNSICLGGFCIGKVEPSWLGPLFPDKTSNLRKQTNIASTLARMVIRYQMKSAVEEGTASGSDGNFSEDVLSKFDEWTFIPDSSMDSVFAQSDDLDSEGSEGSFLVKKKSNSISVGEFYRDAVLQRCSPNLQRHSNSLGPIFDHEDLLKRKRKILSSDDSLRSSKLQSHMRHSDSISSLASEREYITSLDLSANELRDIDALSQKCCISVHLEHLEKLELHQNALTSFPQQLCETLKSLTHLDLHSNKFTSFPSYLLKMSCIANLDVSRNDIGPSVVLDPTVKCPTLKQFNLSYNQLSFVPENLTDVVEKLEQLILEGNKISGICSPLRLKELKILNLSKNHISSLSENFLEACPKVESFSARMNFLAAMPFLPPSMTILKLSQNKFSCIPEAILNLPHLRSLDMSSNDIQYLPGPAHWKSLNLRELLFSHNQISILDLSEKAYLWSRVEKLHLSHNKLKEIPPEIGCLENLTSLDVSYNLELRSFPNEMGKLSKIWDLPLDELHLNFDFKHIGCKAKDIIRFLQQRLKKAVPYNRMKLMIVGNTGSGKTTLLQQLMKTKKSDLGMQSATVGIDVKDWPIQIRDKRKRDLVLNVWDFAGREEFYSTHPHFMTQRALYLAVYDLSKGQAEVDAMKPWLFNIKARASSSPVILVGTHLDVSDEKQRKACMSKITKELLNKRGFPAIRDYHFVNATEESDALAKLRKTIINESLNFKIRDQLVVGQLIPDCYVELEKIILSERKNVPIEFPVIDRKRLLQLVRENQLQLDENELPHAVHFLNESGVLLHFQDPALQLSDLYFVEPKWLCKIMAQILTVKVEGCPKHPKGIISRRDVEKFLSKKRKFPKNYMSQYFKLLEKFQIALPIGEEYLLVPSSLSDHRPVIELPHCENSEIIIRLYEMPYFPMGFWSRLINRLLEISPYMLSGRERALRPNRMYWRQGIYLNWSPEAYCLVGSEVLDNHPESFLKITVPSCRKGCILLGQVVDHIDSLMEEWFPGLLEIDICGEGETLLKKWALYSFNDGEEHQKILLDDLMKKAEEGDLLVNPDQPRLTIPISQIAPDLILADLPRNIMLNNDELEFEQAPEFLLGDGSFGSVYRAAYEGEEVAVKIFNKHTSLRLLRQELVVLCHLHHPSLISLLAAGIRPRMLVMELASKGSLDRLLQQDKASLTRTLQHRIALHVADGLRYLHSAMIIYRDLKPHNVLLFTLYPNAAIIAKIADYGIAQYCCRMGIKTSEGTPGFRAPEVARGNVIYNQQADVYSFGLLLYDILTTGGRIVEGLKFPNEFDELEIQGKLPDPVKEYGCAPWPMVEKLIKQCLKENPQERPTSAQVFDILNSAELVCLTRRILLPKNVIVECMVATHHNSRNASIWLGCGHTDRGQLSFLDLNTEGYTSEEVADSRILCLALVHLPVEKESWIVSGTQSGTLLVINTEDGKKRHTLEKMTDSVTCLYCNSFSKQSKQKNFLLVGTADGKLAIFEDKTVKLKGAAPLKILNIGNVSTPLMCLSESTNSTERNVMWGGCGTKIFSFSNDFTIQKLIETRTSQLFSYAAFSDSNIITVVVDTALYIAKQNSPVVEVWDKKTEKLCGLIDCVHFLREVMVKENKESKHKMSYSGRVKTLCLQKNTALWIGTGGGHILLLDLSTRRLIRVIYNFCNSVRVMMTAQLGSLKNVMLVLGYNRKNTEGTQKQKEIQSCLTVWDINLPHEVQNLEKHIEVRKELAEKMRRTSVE

Compound	IC50
Cc1nc(N2CC3(CO)CC2CO3)cc(-n2ncc3cc(C)c(C4CCN(C5CCOC5)CC4)cc32)n1 (single isomer, unassigned) [Example E152, (5-(2-methyl-6-(5-methyl-6-(1-(tetrahydrofuran-3-yl)piperidin-4-yl)-1H-indazol-1-yl)pyrimidin-4-yl)-2-oxa-5-azabicyclo[2.2.1]heptan-1-yl)methanol]	≤ 100 nM
Cc1nc(N2C[C@@]3(CO)C[C@@H]2CO3)cc(-n2ncc3cc(C)c(C4CCOCC4)cc32)n1 [Example E173, ((1R,4R)-5-(2-methyl-6-(5-methyl-6-(tetrahydro-2H-pyran-4-yl)-1H-indazol-1-yl)pyrimidin-4-yl)-2-oxa-5-azabicyclo[2.2.1]heptan-1-yl)methanol]	≤ 100 nM
Cc1nc(N2C[C@@H]3C[C@H]2CO3)cc(-n2ncc3cc(C)c(C4CCN(CCC(=O)O)CC4F)cc32)n1 (single isomer, unassigned) [Example E156]	≤ 100 nM
Cc1nc(N2C[C@H]3C[C@@H]2CO3)cc(-n2ncc3cc(C)c(C4CCN(C5COCC5O)CC4)cc32)n1 (single isomer, unassigned) [Example E171]	≤ 100 nM

The next lines start with the values.

IC50	Compound
≤ 100 nM	Cc1nc(N2C[C@@]3(CO)C[C@@H]2CO3)cc(-n2ncc3cc(C)c(C4CCN([C@H]5CCOC5)CC4)cc32)n1 [Example E142, ((1R,4R)-5-(2-methyl-6-(5-methyl-6-(1-((S)-tetrahydrofuran-3-yl)piperidin-4-yl)-1H-indazol-1-yl)pyrimidin-4-yl)-2-oxa-5-azabicyclo[2.2.1]heptan-1-yl)methanol]
≤ 100 nM	COc1nc(N2CC3CC2CO3)cc(-n2ncc3cc(C)c(C4CCN(C5COC5)CC4O)cc32)n1 (single isomer, unassigned) [Example E133]
≤ 100 nM	Cc1nc(N2C[C@H]3C[C@@H]2CO3)cc(-n2ncc3cc(C)c(C4CCN(CCS(C)(=O)=O)CC4)cc32)n1 [Example E170, (1R,4R)-5-(2-methyl-6-(5-methyl-6-(1-(2-(methylsulfonyl)ethyl)piperidin-4-yl)-1H-indazol-1-yl)pyrimidin-4-yl)-2-oxa-5-azabicyclo[2.2.1]heptane]
≤ 100 nM	COC(=O)CCN1CCC(c2cc3c(cnn3-c3cc(N4C[C@@H]5C[C@H]4CO5)nc(C)n3)cc2C)CC1 [Example E163, Methyl 3-(4-(1-(6-((1S,4S)-2-oxa-5-azabicyclo[2.2.1]heptan-5-yl)-2-methylpyrimidin-4-yl)-5-methyl-1H-indazol-6-yl)piperidin-1-yl)propanoate]
≤ 100 nM	Cc1nc(N2C[C@H]3C[C@@H]2CO3)cc(-n2ncc3cc(C)c(C4CCN(C5CCOC5)CC4F)cc32)n1 (single isomer, unassigned) [Example E148]
≤ 100 nM	Cc1nc(N2CC3(CO)CC2CO3)cc(-n2ncc3cc(C)c(C4CCN(C5COC5)CC4)cc32)n1 (stereo not drawn) [Example E166, (5-(2-methyl-6-(5-methyl-6-(1-(oxetan-3-yl)piperidin-4-yl)-1H-indazol-1-yl)pyrimid-in-4-yl)-2-oxa-5-azabicyclo[2.2.1]heptan-1-yl)methanol]
≤ 100 nM	Cc1nc(N2C[C@@H]3C[C@H]2CO3)cc(-n2ncc3cc(C)c(C4CCN(C5CCOC5)CC4F)cc32)n1 (single isomer, unassigned) [Example E150]
≤ 100 nM	Cc1nc(N2C[C@H]3C[C@@H]2CO3)cc(-n2ncc3cc(C)c(C4CCN(CCC(=O)O)CC4F)cc32)n1 (single isomer, unassigned) [Example E154]

Molecular target: T2, LRRK2 Ser935 phosphorylation in SH-SY5Y cells over-expressing recombinant full length LRRK2 (Homo sapiens, UniProt Q5S007)
T2 construct: A BacMam virus expressing full length recombinant LRRK2 was purchased from Invitrogen; host or cells: SH-SY5Y human neuroblastoma cells transduced with BacMam LRRK2 virus
Assay: Recombinant cellular LRRK2 AlphaScreen assay
Format: cell-based
Details: human neuroblastoma SH-SY5Y cells, BacMam full length LRRK2, 60 minutes with compound, read-out: pIC50 in the recombinant cellular LRRK2 AlphaScreen assay (converted)
In short: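 SH-SY5Y cells transduced with BacMam full-length human LRRK2 (MOI 50) for 24 h, then treated with compound (top final 10 μM) for 60 min at 37° C. Lysate pSer935 LRRK2 quantified by AlphaScreen using anti-pS935 and total-LRRK2 antibodies. Values from sigmoidal dose-response fit.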

T2 sequence (Q5S007 whole entry): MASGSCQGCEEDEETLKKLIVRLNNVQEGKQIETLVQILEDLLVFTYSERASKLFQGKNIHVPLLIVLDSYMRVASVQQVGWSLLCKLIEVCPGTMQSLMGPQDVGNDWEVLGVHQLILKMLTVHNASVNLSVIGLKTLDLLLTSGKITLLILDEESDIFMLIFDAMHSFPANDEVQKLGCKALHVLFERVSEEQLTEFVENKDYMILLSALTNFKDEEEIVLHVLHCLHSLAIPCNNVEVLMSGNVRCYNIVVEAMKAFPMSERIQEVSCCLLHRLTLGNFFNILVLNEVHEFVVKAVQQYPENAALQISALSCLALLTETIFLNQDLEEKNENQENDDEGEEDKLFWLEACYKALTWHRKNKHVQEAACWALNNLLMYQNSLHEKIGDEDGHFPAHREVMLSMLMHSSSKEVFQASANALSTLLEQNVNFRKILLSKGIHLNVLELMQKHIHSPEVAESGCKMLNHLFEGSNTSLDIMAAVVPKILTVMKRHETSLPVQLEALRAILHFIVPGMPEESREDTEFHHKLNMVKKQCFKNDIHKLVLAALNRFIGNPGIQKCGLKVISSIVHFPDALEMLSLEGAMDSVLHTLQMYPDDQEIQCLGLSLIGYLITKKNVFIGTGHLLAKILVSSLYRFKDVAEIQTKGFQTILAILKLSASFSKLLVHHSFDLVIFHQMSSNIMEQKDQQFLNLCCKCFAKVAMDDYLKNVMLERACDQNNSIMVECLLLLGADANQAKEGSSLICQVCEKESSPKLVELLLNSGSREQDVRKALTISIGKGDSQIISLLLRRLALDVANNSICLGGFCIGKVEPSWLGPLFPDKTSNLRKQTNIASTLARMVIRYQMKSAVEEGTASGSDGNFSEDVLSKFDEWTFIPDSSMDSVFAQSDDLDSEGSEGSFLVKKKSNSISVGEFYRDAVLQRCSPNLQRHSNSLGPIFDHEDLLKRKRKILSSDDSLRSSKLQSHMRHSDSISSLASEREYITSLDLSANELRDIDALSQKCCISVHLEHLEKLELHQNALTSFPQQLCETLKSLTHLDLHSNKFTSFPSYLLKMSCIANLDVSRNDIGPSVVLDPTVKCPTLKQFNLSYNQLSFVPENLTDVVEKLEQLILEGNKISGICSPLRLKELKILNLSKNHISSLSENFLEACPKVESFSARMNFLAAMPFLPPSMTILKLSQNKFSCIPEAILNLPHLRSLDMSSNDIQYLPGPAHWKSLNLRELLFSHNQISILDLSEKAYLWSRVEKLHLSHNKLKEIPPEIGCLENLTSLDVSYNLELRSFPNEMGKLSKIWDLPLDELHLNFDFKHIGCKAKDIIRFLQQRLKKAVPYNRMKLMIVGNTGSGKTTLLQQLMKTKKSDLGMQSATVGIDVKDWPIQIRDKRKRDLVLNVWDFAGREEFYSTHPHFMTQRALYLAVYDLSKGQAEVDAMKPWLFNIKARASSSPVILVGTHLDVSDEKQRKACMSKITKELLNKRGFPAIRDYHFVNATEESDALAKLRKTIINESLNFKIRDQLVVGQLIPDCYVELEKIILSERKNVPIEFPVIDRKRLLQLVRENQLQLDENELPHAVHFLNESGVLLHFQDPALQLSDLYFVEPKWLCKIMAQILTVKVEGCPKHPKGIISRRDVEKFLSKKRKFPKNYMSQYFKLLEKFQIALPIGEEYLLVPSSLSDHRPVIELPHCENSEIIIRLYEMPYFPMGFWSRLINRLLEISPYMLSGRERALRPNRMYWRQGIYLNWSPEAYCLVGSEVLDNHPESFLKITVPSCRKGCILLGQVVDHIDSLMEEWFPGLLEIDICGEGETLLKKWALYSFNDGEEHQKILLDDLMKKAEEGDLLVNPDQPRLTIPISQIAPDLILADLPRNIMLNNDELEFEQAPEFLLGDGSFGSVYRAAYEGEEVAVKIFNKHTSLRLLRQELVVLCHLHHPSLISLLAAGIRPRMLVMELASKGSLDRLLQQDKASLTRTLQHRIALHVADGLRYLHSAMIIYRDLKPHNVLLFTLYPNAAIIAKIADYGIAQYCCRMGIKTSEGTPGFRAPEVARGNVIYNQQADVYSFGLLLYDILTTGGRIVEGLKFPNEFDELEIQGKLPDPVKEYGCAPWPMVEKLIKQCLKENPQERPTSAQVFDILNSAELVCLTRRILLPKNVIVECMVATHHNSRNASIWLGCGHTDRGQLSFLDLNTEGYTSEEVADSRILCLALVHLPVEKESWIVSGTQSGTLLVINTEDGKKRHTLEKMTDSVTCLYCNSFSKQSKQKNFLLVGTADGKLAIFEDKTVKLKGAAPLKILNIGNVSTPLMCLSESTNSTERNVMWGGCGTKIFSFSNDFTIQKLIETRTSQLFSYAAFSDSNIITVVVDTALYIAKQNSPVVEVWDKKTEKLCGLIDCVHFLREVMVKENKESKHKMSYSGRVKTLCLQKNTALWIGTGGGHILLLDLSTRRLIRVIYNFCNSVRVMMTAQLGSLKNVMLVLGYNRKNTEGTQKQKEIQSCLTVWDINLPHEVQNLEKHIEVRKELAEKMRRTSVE

Compound	IC50
Cc1nc(N2C3COCC2COC3)cc(-n2ncc3cc(C)c(C4CCN(C5COC5)CC4)cc32)n1 [Example E46, 9-(2-methyl-6-(5-methyl-6-(1-(oxetan-3-yl)piperidin-4-yl)-1H-indazol-1-yl)pyrimidin-4-yl)-3,7-dioxa-9-azabicyclo[3.3.1]nonane]	≤ 1000 nM
[2H]C([2H])([2H])Oc1nc(N2C[C@H]3C[C@@H]2CO3)cc(-n2ncc3cc(C)c(C4CCN(C5COC5)CC4)cc32)n1 [Example E72, (1R,4R)-5-(6-(5-methyl-6-(1-(oxetan-3-yl)piperidin-4-yl)-1H-indazol-1-yl)-2-(trideuteriummethoxy)pyrimidin-4-yl)-2-oxa-5-azabicyclo[2.2.1]heptane]	≤ 10 nM
Cc1nc(N2CC3CC2CC3C(=O)O)cc(-n2ncc3cc(C)c(C4CCC(C)(O)CC4)cc32)n1 (single isomer, unassigned) [Example E76, 2-(6-(6-(cis-4-hydroxy-4-methylcyclohexyl)-5-methyl-1H-indazol-1-yl)-2-methylpyrimidin-4-yl)-2-azabicyclo[2.2.1]heptane-5-carboxylic Acid, TFA Salt]	≤ 10 nM
Cc1nc(N2CC3CC2CO3)cc(-n2ncc3cc(C)c(C4CCN([C@H]5CCOC5)CC4O)cc32)n1 (single isomer, unassigned) [Example E137]	≤ 1000 nM
COc1nc(N2C[C@@H]3C[C@H]2CO3)cc(-n2ncc3cc(C)c(C4CCN(CCO)CC4F)cc32)n1 (single isomer, unassigned) [Example E19]	≤ 1000 nM
Cc1nc(N2C[C@H]3C[C@@H]2CN3C2COC2)cc(-n2ncc3cc(C)c([C@H]4CC[C@@](C)(O)CC4)cc32)n1 [Example E29, Cis-1-methyl-4-(5-methyl-1-(2-methyl-6-((1R,4R)-5-(oxetan-3-yl)-2,5-diazabicyclo[2.2.1]heptan-2-yl)pyrimidin-4-yl)-1H-indazol-6-yl)cyclohexanol]	≤ 1000 nM
COc1nc(N2CC3CC2CC3C(=O)O)cc(-n2ncc3cc(Cl)c(O[C@H]4CCOC4)cc32)n1 (single isomer, unassigned) [Example E84]	≤ 1000 nM

The remaining lines, values ahead:

IC50	Compound
≤ 1000 nM	COc1nc(N2C[C@H]3C[C@@H]2CO3)cc(-n2ncc3ccc(OC4(C)CC4)cc32)n1 [Example E3, (1R,4R)-5-(2-methoxy-6-(6-(1-methylcyclopropoxy)-1H-indazol-1-yl)pyrimidin-4-yl)-2-oxa-5-azabicyclo[2.2.1]heptane]
≤ 1000 nM	Cc1nc(N2C[C@H]3C[C@@H]2CO3)cc(-n2ncc3cc(C)c(C4CCN(C5COC5)CC4C)cc32)n1 (stereo partly drawn) [Example E55, (1R,4R)-5-(2-methyl-6-(5-methyl-6-(3-methyl-1-(oxetan-3-yl)piperidin-4-yl)-1H-indazol-1-yl)pyrimidin-4-yl)-2-oxa-5-azabicyclo[2.2.1]heptane]
